Paper PMC3335879, “Selective Inhibitors of Protozoan Protein N-myristoyltransferases as Starting Points for Tropical Disease Medicinal Chemistry Programs” (PLoS Neglected Tropical Diseases, 2012)
Where two headings read alike, the source gives them in different places.

Key:
[1] = target: T1, T brucei NMT (Trypanosoma brucei brucei, UniProt Q388H8); assay: T. brucei NMT scintillation proximity dose-response assay; format: biochemical
T1 construct: made in house
T1 sequence (Q388H8 1-446): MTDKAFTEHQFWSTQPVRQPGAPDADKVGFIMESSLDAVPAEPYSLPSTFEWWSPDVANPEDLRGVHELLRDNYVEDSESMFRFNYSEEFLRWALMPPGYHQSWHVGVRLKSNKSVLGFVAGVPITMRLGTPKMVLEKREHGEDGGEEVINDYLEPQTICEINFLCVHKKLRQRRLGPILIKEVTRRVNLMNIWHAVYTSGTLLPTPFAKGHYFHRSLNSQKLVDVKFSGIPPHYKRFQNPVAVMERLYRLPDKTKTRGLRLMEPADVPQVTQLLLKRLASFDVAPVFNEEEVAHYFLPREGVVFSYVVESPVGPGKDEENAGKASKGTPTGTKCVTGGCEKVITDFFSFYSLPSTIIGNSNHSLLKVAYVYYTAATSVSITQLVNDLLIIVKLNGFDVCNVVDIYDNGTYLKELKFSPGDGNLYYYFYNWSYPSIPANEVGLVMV

[2] = target: T2, HsNMT1 (Homo sapiens, UniProt P30419); assay: Human NMT1 scintillation proximity dose-response assay; format: biochemical; settings: Table 2; single determination; read-out: Hs1 IC50
T2 construct: made in house
T2 sequence (P30419 1-496): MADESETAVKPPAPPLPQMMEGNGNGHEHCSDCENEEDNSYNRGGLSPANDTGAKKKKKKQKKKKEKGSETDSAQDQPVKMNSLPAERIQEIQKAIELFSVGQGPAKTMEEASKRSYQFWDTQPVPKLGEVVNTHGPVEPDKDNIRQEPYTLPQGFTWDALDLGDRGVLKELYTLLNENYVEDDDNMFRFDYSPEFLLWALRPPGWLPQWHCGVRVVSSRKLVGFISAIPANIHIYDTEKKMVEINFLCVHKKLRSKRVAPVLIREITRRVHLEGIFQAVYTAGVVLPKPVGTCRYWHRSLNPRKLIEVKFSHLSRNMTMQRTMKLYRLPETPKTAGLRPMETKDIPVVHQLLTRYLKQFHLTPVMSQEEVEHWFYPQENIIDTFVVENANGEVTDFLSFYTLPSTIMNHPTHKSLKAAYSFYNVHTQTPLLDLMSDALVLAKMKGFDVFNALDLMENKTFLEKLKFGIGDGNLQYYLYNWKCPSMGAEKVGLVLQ

[3] = target: L. donovani NMT (Leishmania donovani, UniProt D0AB09); assay: biochemical; settings: for Ldon LE: ligand efficiency calculated from Ldon NMT IC50
Method: Recombinant P. falciparum (Swiss-Prot Q81LW6) and L. donovani NMTs (EMBL accession number FN555136) were produced at the University of York, using established protocols. An assay format based on scintillation proximity technology to monitor enzyme activity was used as previously described, [30].
The Pfizer Global Diverse Representative Set consisting of 150,000 compounds was screened at 20 µM final assay concentration. Assay plates were prepared by dispensing 0.1 µL of compound dissolved in DMSO using the Vario system (Cybio) into white 384-well plates (Greiner Bio-One).
(§1) The reaction was initiated by adding 10 µL of the substrate mixture to each well containing the pre-incubated enzyme/compound mixture, and allowed to proceed at RT for 80 min. The reaction was quenched by the addition 20 µl of stop solution to each well. Stop solution consisted of 0.75 M MgCl2 (Sigma), 0.1 M phosphoric acid (Sigma) and 1 mg/ml of streptavidin-coated polystyrene SPA beads (Perkin-Elmer). Plates were sealed using topseals (Perkin-Elmer) and left overnight to allow the bead solution to settle. Radioactive counts were measured with an integration time of 300 sec per plate using the Leadseeker Generation 4 plate reader (GE Healthcare). Each plate included a positive control of 1 µM final assay concentration of DDD85646 [22] and 1% DMSO as a negative control. […] The data were analysed using Pfizer SIGHTS software and visualised using Spotfire software (TIBCO).

[4] = target: T3, P. falciparum NMT (Plasmodium falciparum, UniProt Q8ILW6); assay: biochemical; settings: for Pfal LE: ligand efficiency calculated from Pfal NMT IC50; for Pfal/Ldon Sel: selectivity for Pfal NMT over Ldon NMT derived from IC50 values
T3 construct: made in house
T3 sequence (Q8ILW6 1-410): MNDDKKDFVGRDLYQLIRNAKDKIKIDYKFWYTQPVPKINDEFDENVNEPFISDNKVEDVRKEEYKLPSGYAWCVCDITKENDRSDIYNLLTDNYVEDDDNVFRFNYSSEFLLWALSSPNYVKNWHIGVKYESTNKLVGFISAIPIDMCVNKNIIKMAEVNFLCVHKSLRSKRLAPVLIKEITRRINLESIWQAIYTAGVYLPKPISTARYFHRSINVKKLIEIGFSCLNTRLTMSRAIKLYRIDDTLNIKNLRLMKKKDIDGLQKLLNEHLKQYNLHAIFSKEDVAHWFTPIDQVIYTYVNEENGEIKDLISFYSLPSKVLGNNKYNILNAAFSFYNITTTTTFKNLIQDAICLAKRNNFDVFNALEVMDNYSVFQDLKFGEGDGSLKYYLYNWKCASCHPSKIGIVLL
Method: Recombinant P. falciparum (Swiss-Prot Q81LW6) and L. donovani NMTs (EMBL accession number FN555136) were produced at the University of York, using established protocols. An assay format based on scintillation proximity technology to monitor enzyme activity was used as previously described, [30]. […]
as §1

[5] = target: T4, HsNMT2 (Homo sapiens, UniProt O60551); assay: Human NMT2 scintillation proximity dose-response assay; format: biochemical; settings: Table 2; single determination; read-out: Hs2 IC50
T4 construct: made in house
T4 sequence (O60551 1-498): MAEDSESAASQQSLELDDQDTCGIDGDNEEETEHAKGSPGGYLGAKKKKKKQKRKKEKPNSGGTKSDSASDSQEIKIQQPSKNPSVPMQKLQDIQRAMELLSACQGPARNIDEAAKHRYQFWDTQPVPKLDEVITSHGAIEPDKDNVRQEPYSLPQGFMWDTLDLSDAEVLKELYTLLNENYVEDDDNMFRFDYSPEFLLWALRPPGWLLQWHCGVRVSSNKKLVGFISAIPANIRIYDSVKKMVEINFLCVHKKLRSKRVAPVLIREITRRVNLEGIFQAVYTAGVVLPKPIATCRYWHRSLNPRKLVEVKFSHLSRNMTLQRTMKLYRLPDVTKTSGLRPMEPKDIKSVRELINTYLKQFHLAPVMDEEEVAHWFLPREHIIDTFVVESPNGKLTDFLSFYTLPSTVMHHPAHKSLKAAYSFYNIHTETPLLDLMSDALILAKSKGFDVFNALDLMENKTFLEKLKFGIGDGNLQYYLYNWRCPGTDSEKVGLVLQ

[6] = Table 2, single determination, read-out: Tb IC50
[7] = Table 1, mean of 3 separate experiments, top concentration 80 µM, read-out: Ldon IC50
[8] = Table 2, mean of 3 determinations, read-out: Ldon IC50
[9] = Table 1, mean of 3 separate experiments, top concentration 80 µM, read-out: Pfal IC50
[10] = Table 2, mean of 3 determinations, read-out: Pfal IC50
[11] = Ldon IC50, Table 1, mean of 3 separate experiments, top concentration 80 µM
[12] = Ldon IC50, Table 2, mean of 3 determinations

Sequence of L. donovani NMT (D0AB09 entry or part of it): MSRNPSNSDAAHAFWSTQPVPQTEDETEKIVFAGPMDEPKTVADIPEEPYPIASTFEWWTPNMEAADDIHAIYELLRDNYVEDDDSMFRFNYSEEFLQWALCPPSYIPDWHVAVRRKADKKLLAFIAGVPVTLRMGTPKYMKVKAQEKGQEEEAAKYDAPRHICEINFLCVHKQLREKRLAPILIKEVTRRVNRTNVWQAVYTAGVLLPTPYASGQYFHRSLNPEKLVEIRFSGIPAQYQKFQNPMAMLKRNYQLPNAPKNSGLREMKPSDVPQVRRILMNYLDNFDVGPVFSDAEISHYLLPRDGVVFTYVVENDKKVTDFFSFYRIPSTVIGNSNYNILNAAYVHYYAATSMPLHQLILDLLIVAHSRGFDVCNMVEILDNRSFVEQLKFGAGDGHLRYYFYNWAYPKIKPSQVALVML

Structure (SMILES) | IC50 [1, 6] | IC50 [2] | IC50 [3, 7] | IC50 [3, 8] | IC50 [4, 9] | IC50 [4, 10] | Pfal LE [4] | Pfal/Ldon Sel [4] | IC50 [5] | Ldon LE [3] | IC50 [1] | IC50 [3, 11] | IC50 [3, 12] | IC50 [4]
CNCC(=O)N1CC[C@@H](NC(=O)c2ccccc2C(F)(F)F)C1 [CP-854190] | > 80 µM | 0.57 µM | 38.7 µM | 38.7 µM | 1.72 µM | 1.72 µM | 0.34 | 22.5 | 1.59 µM | – | – | – | – | –
c1cncc(CCNCc2cccc(-c3cccc(CN4CCc5ncsc5C4)c3)c2)c1 [PF-00075634] | > 80 µM | 36.1 µM | 0.158 µM | 0.16 µM | > 80 µM | > 80 µM | – | – | 26.7 µM | 0.29 | – | – | – | –
Cc1cc2nc(N(C)C3CCN(C)CC3)nc(N(C)CCC#N)c2s1 [PF-00349412] | – | 9 µM | – | – | – | – | – | – | 11.5 µM | 0.34 | 56.2 µM | 0.482 µM | 0.48 µM | 39.6 µM
NC(CC(=O)N1CC(CO)C(c2ccc(Cl)cc2)C1)Cc1ccc(Cl)cc1 (centres unmarked) [PF-03402623] | 1.5 µM | 5.2 µM | 0.093 µM | 0.093 µM | 71.9 µM | 71.9 µM | – | – | 14.7 µM | 0.35 | – | – | – | –
Cc1cnc(CNC(=O)C2CN(c3nc(NCCN(C)C)ncc3Cl)C2)cn1 [PF-03531814] | > 80 µM | 70 µM | 72 µM | 72 µM | 0.482 µM | 0.48 µM | 0.31 | 150 | 76 µM | – | – | – | – | –
Cn1c(CN2CCC(c3cc(F)cc(F)c3)CC2)nc2cc(Cl)ccc21 [PF-03665853] | 35.4 µM | 0.51 µM | – | – | 0.91 µM | 0.91 µM | 0.32 | >88 | 0.56 µM | – | – | > 80 µM | > 80 µM | –
